Assays:
Assay type in all cases: in vivo, human
[1] = test system: TMEM (Tumor Microenvironment of Metastasis); assay: TMEM score in breast cancers before and after neoadjuvant chemotherapy (NAC); conditions: 20 breast cancer patients, before vs after NAC (weekly paclitaxel 80 mg/m^2 x 12 weeks followed by dose-dense AC); FIG. 5B-C
Experimental: (§1) FIG. 5A-5D. Neoadjuvant chemotherapy increases TMEM, MenaCalc and MenaINV scores in some breast cancer patients. Paclitaxel (and other cytotoxic chemotherapy) increases TMEM Score, MenaCalc and MenaINV expression in breast cancer patients treated with neoadjuvant chemotherapy (NAC). (A) Study design. (B) Individual TMEM scores of 20 patients before and after receiving NAC, which included weekly paclitaxel (80 mg/m^2×12 consecutive weeks) followed sequentially by dose-dense AC chemotherapy (doxorubicin 60 mg/m^2 and cyclophosphamide 600 mg/m^2 every 2 weeks×4 cycles, plus pegrastim 6 mg SC on day 2 of each cycle). Horizontal line; TMEM high-risk cutoff point. […] (D) MenaCalc expression in fine needle aspiration (FNA) biopsies, as assessed by real-time RT-PCR from 4 patients before and after 2 doses of neo-adjuvant chemotherapy with paclitaxel. (E) MenaINV gene expression in FNA biopsy samples, as assessed by real-time RT-PCR, taken from 5 breast cancer patients before and after 2-weeks of receiving NAC with paclitaxel. […]
Individual TMEM scores of 20 patients were determined before and after receiving NAC, which included weekly paclitaxel (80 mg/m^2×12 consecutive weeks) followed sequentially by dose-dense AC chemotherapy (doxorubicin 60 mg/m^2 and cyclophosphamide 600 mg/m^2 every 2 weeks×4 cycles, plus pegrastim 6 mg SC on day 2 of each cycle) (see FIG. 5B). […]

MenaCalc = MenaCalc expression in FNA biopsies by real-time RT-PCR before and after NAC with paclitaxel; conditions: FNA biopsies from 4 patients, before vs after 2 doses of neo-adjuvant paclitaxel; FIG. 5D
Experimental: as §1, with “point. For each pair of bars, Pre-NAC scores are shown in the first bar in the pair and Post-NAC scores are shown in the second bar.” for “point.”
(§2) MenaCalc expression was determined in fine needle aspiration (FNA) biopsies, as assessed by real-time RT-PCR from 4 patients before and after 2 doses of neo-adjuvant chemotherapy with paclitaxel (see FIG. 5D). […]

MenaINV = MenaINV gene expression in FNA biopsy samples by real-time RT-PCR before and after NAC with paclitaxel; conditions: FNA biopsies from 5 breast cancer patients, before vs after 2 weeks of NAC with paclitaxel; FIG. 5E
Experimental: as §1, with “point. For each pair of bars, Pre-NAC scores are shown in the first bar in the pair and Post-NAC scores are shown in the second bar.” for “point.”
as §2

CC(=O)O[C@H]1C(=O)[C@@]2(C)[C@H]([C@H](OC(=O)c3ccccc3)[C@]3(O)C[C@H](OC(=O)[C@H](O)[C@@H](NC(=O)c4ccccc4)c4ccccc4)C(C)=C1C3(C)C)[C@]1(OC(C)=O)CO[C@@H]1C[C@@H]2O [paclitaxel]
increases: TMEM Score [1] | MenaCalc expression (MenaCalc) | MenaINV expression (MenaINV)

From patent US12174190B2, “Combined markers for metastatic cancer and uses thereof” (Albert Einstein College of Medicine, priority 2017, dated 2024)
